Experimental findings from PMC6548335 (ACS infectious diseases, 2019) are described below.

Series [1] can be described thus: Hepatic microsomal stability. Type of series: in vitro ADME. To be noted: mouse, liver microsomes, pH 7.4. For orientation: Liver microsomes are vesicles of endoplasmic reticulum, rich in cytochrome P450 enzymes.
The next series has as its system DENV2 NGC. The series can be described thus: microbe, parasite or virus in culture. The settings on record: Dengue virus, DENV2, BHK-21, read-out: IC90 (μM) [DENV2 NGC). Type of series: cell-based, dengue virus 2 (BHK-21 cells).
Series [2] has as its system malate dehydrogenase (MDH). The series can be described thus: Malate dehydrogenase. It is filed as biochemical. The settings on record: presence and absence of Triton X-100.
The subject of a further series is BHK-21 cells. The series can be described thus: Cytotoxicity assay. Type of series: cell-based, baby hamster. To be noted: for CC5: 50% loss of BHK-21 cell viability; for CC50 relative to antiviral IC90: BHK-21 CC50 vs DENV2 IC90.
In series [3] the target is soluble, prefusion DENV2 envelope protein (sE2) (Dengue virus type 2, UniProt P14340). In words: Biolayer interferometry binding to sE2. On the set-up: species or system dengue virus 2.
The next series is described as follows: Plasma-protein binding. Type of series: in vitro ADME.
In series [4] the test system is E-mediated membrane fusion of DENV2, strain NGC. To be noted: 0, 10, 50 μM compound, pH 5.3, Western blot.
Series [5] can be described thus: Pharmacokinetic study in mice. To be noted: female, C57BL/6, mouse, intraperitoneal, 20 mg/kg.
In series [6] the test system is DENV2 S221. In words: Multi-cycle infection, DENV2 S221. To be noted: 5 μM, MOI 0.01, supernatants at 48 and 72 hours post-infection.
For series [7], the system named is DENV2 S221. In words: Viral infectivity assay, mouse-adapted DENV2 S221. The settings on record: Dengue virus, DENV2, BHK-21, read-out: antiviral IC90, DENV2 S221.

“Also recorded” adds a separate entry of the source.

With `CN1CCN(c2ccc(N/N=C(\C#N)C(=O)c3cc4ccccc4o3)cc2C(F)(F)F)CC1` [JBJ-01-162-01, (E)-2-(benzofuran-2-yl)-N-(4-(4-methylpiperazin-1-yl)-3-(trifluoromethyl)phenyl)-2-oxoacetohydrazonoyl cyanide], the half-life – broadly, how long it takes for the measured level to halve – at 1 μM in series [1] stood at 35.1 min.

Consider `CN1CCN(c2cc(N/N=C(\C#N)C(=O)c3cc4ccccc4o3)cc(C(F)(F)F)c2)CC1` [JBJ-01-162-02, (E)-2-(benzofuran-2-yl)-N-(3-(4-methylpiperazin-1-yl)-5-(trifluoromethyl)phenyl)-2-oxoacetohydrazonoyl cyanide], for which, in the series with DENV2 NGC, the IC90 (in general, the concentration at which the effect reaches the 90% level) was 9 ± 2.8 µM. Further, the “detergent-sensitive (non-specific) inhibition of MDH” value in series [2] is “detergent-sensitive inhibition of malate dehydrogenase comparable to that of 3-110-22”. In [1], the half-life at 1 μM turned out to be 73 min. Further, in the series with BHK-21 cells, the “CC5” value amounted to 24.5 ± 7.2 µM.

In the case of `N#C/C(=N\Nc1ccc(N2CCOCC2)c(C(F)(F)F)c1)C(=O)c1cc2ccccc2o1` [JBJ-01-162-03, (E)-2-(benzofuran-2-yl)-N-(4-morpholino-3-(trifluoromethyl)phenyl)-2-oxoacetohydrazonoyl cyanide], in the series on DENV2 NGC, the 90% effect concentration (IC90) came to 1.6 ± 0.7 µM. Moreover, the “detergent-sensitive (non-specific) inhibition of MDH” value in series [2] was “detergent-sensitive inhibition of malate dehydrogenase comparable to that of 3-110-22”. Moreover, in [1], the half-life at 1 μM is above 120 min. In addition, in the series on BHK-21 cells, the “CC5” value stood at 32.5 ± 2.2 µM and the “CC50 relative to antiviral IC90” value is given as at least 20 fold.

In the case of `Cc1cn(-c2cc(N/N=C(\C#N)C(=O)c3cc4ccccc4o3)cc(C(F)(F)F)c2)cn1` [JBJ-01-162-04, (E)-2-(benzofuran-2-yl)-N-(3-(4-methyl-1H-imidazol-1-yl)-5-(trifluoromethyl)phenyl)-2-oxoacetohydrazonoyl cyanide], the results for the IC90 in the series with DENV2 NGC and in the series with DENV2 S221 [7] were 1.5 ± 0.4 µM and 1400 ± 600 nM, respectively. The “detergent-sensitive (non-specific) inhibition of MDH” value in series [2] was “lacks this non-specific activity; also recorded: Slight inhibition of MDH”. The compound also yielded a half-life at 1 μM in [1] of 64.8 min. The “CC50 relative to antiviral IC90” value in the series with BHK-21 cells was at least 20 fold. Besides, binding in [3] was characterised by a dissociation constant (Kd) of 1400 ± 500 nM. Besides, the free fraction (fraction unbound) (as a rule, free concentration divided by total concentration) in “Plasma-protein binding” is below 0.001. Also, the “inhibition of E-mediated fusion (protection of core from trypsin digestion), DENV2” value in series [4] is on record as “inhibits E-mediated fusion of DENV2 in a concentration-dependent manner; also recorded: inhibits viral fusion in the liposome-based assay in a concentration-dependent manner”. For the same compound, the concentration at 4 h was determined as 37.2 µM in series [5] (liver) and 75.8 µM in series [5] (plasma). In addition, the concentration at 12 h was 13 µM in series [5] (liver) and 2.9 µM in series [5] (plasma). In the series with DENV2 S221 [6], the “reduction of viral yield in multi-cycle infection” value was “over 95%”.

As for `CCN1CCN(Cc2ccc(N/N=C(\C#N)C(=O)c3cc4ccccc4o3)cc2C(F)(F)F)CC1` [JBJ-01-162-05, (E)-2-(benzofuran-2-yl)-N-(4-((4-ethylpiperazin-1-yl)methyl)-3-(trifluoromethyl)phenyl)-2-oxoacetohydrazonoyl cyanide], the half-life at 1 μM in series [1] was found to be 29.9 min.

As to `N#C/C(=N\Nc1ccc(F)c(C(F)(F)F)c1)C(=O)c1cc2ccccc2o1` [JBJ-03-019-01, (E)-2-(benzofuran-2-yl)-N-(4-fluoro-3-(trifluoromethyl)phenyl)-2-oxoacetohydrazonoyl cyanide], the half-life at 1 μM in series [1] was determined as 7.6 min.

In series [1], `N#C/C(=N\Nc1cc(F)cc(C(F)(F)F)c1)C(=O)c1cc2ccccc2o1` [JBJ-03-019-02, (E)-2-(benzofuran-2-yl)-N-(3-fluoro-5-(trifluoromethyl)phenyl)-2-oxoacetohydrazonoyl cyanide] had a half-life at 1 μM of 8.6 min.
